From patent publication US20230373935A1, “MODULATORS OF CYSTIC FIBROSIS TRANSMEMBRANE CONDUCTANCE REGULATOR” (VERTEX PHARMACEUTICALS INCORPORATED, priority 2020, published 2023)

Biological target: CFTR (Homo sapiens, UniProt P13569)
Assay: standard Ussing Chamber Assay for CFTR potentiator activity
Assay type: cell-based

Sequence of CFTR (P13569 whole entry): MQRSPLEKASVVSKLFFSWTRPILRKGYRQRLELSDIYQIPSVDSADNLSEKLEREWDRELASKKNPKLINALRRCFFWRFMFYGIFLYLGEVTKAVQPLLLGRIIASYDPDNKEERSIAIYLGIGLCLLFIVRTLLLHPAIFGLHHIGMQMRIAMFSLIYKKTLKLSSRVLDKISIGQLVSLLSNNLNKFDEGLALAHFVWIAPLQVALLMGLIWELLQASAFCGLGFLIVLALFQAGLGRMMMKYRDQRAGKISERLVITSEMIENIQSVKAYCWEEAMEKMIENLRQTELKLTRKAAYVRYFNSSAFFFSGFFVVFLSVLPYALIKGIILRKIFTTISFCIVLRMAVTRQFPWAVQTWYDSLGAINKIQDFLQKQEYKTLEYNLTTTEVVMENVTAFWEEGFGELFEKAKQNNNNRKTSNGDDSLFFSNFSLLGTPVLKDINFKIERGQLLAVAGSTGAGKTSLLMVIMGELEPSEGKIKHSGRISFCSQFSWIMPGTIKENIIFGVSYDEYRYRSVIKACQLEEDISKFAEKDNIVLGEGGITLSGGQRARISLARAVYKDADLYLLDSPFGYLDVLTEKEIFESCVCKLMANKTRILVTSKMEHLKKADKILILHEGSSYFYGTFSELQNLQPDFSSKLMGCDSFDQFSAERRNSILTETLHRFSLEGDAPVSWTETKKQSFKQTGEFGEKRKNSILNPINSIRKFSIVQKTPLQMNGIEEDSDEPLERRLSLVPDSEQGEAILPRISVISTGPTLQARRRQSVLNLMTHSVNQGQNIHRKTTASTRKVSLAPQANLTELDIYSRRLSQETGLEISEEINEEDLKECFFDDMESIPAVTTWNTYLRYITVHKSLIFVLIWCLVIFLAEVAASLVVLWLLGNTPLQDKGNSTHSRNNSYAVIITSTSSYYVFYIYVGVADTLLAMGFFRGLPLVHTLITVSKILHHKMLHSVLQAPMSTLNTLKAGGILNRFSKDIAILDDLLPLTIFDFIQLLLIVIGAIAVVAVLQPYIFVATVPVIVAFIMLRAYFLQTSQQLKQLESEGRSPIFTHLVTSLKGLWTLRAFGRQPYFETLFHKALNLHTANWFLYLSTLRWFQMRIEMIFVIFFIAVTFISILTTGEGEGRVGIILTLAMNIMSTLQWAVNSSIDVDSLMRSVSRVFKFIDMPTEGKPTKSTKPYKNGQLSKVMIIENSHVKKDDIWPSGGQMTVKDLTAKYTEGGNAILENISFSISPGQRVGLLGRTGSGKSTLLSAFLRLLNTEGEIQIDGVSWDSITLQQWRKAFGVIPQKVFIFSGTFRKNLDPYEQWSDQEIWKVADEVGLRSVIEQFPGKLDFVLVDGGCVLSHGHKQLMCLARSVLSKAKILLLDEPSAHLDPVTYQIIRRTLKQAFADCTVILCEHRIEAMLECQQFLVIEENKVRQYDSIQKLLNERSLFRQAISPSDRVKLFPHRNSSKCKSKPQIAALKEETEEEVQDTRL

CFTR modulatory activity: confirmed
Structure (SMILES): C[C@@H]1CCCCC[C@](O)(C(F)(F)F)C2=NN=C(O2)c2nc(c(C(F)(F)F)cc2N)O1 [(6R,12R)-17-amino-12-methyl-6,15-bis(trifluoromethyl)-13,19-dioxa-3,4,18-triazatricyclo[12.3.1.12,5]nonadeca-1(18),2,4,14,16-pentaen-6-ol]
